{"source": "patent US4954348A", "about": "“Non-ionic polyol contrast media from ionic contrast media” (Cook Imaging Corporation, priority 1988, dated 1990)", "key": {"Rats (female Lewis)": {"tested_on": "Rats (female Lewis)", "test": "i.v. LD50 in rats (systemic toxicity)", "type": "in vivo", "settings": "300 mg I/ml, 37° C., injection rate 5 ml/min", "experimental": "(§1) All compounds were tested for stability, solubility, osmolality, viscosity and systemic toxicity, using conventional tests.\n(§2) *All at 300 mg I/ml concentration and 37° C. Injection rates 1\n(§3) ml/min in mice and 5 ml/min in rats.\n(§4) ^° Ref. Salvesen, S. in Acta Radiol. Suppl. 362, p. 73, 1980."}, "Mice (female CD-1)": {"tested_on": "Mice (female CD-1)", "test": "i.v. LD50 in mice (systemic toxicity)", "type": "in vivo", "settings": "300 mg I/ml, 37° C., injection rate 1 ml/min", "experimental": "as §1, §2, §3, §4"}, "[1]": {"test": "stability, solubility, osmolality, viscosity and systemic toxicity, conventional tests (overall statement)", "settings": "existing compounds serving as control", "experimental": "as §1"}, "[2]": {"test": "Osmolality at 300 mg I/ml, 37° C.", "type": "physicochemical", "settings": "for Osmolality: 300 mg I/ml, 37° C.; for osmolality versus existing compounds: existing compounds serving as control", "experimental": "as §1, §2"}, "[3]": {"test": "Viscosity at 300 mg I/ml, 37° C.", "type": "physicochemical", "experimental": "as §1, §2"}, "[4]": {"settings": "300 mg I/ml, 37° C.; ^+ Ref. Handbook of Experimental Pharmacology, Vol. 73; cited from earlier work"}, "[5]": {"settings": "300 mg I/ml, 37° C.; ^+ Ref. Handbook of Experimental Pharmacology, Vol. 73; cited from earlier work", "remark": "listed apart in the source"}, "[6]": {"settings": "must be dispensed in lyophilized form and reconstituted prior to use; cited from earlier work"}}, "note": "Where two headings read alike, the source gives them in different places.", "data": [{"compound": "CNC(=O)c1c(I)c(C(=O)N[C@H](CO)[C@@H](O)CO)c(I)c(N(CC(O)CO)C(C)=O)c1I", "note": "(relative stereo) [XVI, 5-(N-2,3-Dihydroxypropylacetamido)-2,4,6-triido-N-methyl-N'-(1,3,4-trihydroxy-erythro-but-2-yl)-isophthalamide]", "values": [{"measurement": "i.v. LD50", "setting": "Rats (female Lewis)", "value": "13.5-14 gI/kg"}, {"measurement": "i.v. LD50", "setting": "Mice (female CD-1)", "value": "12-13 gI/kg"}, {"measurement": "stability, solubility, viscosity and systemic toxicity (other categories) versus existing compounds", "setting": "[1]", "value": "comparable or superior properties in the other categories"}, {"measurement": "Osmolality", "setting": "[2]", "value": 513, "unit": "mOsm/kg"}, {"measurement": "osmolality versus existing compounds", "setting": "[2]", "value": "substantially reduced osmolality"}, {"measurement": "Viscosity", "setting": "[3]", "value": 5.2, "unit": "cps"}]}, {"compound": "C[C@H](O)C(=O)Nc1c(I)c(C(=O)NC(CO)CO)c(I)c(C(=O)NC(CO)CO)c1I", "note": "[Iopamidol]", "values": [{"measurement": "Viscosity", "setting": "[4]", "value": 4.5, "unit": "cps"}, {"measurement": "i.v. LD50", "setting": "Rats (female Lewis)", "value": "12.2-13 gI/kg"}, {"measurement": "i.v. LD50", "setting": "Mice (female CD-1)", "value": "17-18.5 gI/kg"}, {"measurement": "Osmolality", "setting": "[5]", "value": 619, "unit": "mOsm/kg"}]}, {"compound": "CC(=O)N(CC(O)CO)c1c(I)c(C(=O)NCCO)c(I)c(C(=O)NCC(O)CO)c1I", "note": "(stereo not shown) [VIII, 5-(N-2,3-Dihydroxypropylacetamido)-2,4,6-triiodo-N-(2,3-dihydroxypropyl)-N'-(2-hydroxyethyl)isophthalamide]", "values": [{"measurement": "i.v. LD50", "setting": "Rats (female Lewis)", "value": "14-16.5 gI/kg"}, {"measurement": "i.v. LD50", "setting": "Mice (female CD-1)", "value": 18.8, "unit": "gI/kg"}, {"measurement": "stability, solubility, viscosity and systemic toxicity (other categories) versus existing compounds", "setting": "[1]", "value": "comparable or superior properties in the other categories"}, {"measurement": "Osmolality", "setting": "[2]", "value": 524, "unit": "mOsm/kg"}, {"measurement": "osmolality versus existing compounds", "setting": "[2]", "value": "substantially reduced osmolality"}, {"measurement": "Viscosity", "setting": "[3]", "value": 4.9, "unit": "cps"}]}, {"compound": "COCC(=O)Nc1c(I)c(C(=O)NCC(O)CO)c(I)c(C(=O)N(C)CC(O)CO)c1I", "note": "(stereo not shown) [Iopromide]", "values": [{"measurement": "Viscosity", "setting": "[4]", "value": 4.8, "unit": "cps"}, {"measurement": "i.v. LD50", "setting": "Rats (female Lewis)", "value": "10-11.5 gI/kg"}, {"measurement": "i.v. LD50", "setting": "Mice (female CD-1)", "value": "11.5-13.0 gI/kg"}, {"measurement": "Osmolality", "setting": "[5]", "value": 607, "unit": "mOsm/kg"}]}, {"compound": "CC(=O)N(CC(O)CO)c1c(I)c(C(=O)NCC(O)CO)c(I)c(C(=O)NCC(O)CO)c1I", "note": "(stereo not shown) [Iohexol]", "values": [{"measurement": "Viscosity", "setting": "[4]", "value": 6.1, "unit": "cps"}, {"measurement": "i.v. LD50", "setting": "Rats (female Lewis)", "value": "13.5-15 gI/kg"}, {"measurement": "i.v. LD50", "setting": "Mice (female CD-1)", "value": 17.9, "unit": "gI/kg"}, {"measurement": "Osmolality", "setting": "[5]", "value": 690, "unit": "mOsm/kg"}]}, {"compound": "CC(=O)Nc1c(I)c(C(=O)N[C@H]2C(O)O[C@H](CO)[C@@H](O)[C@@H]2O)c(I)c(N(C)C(C)=O)c1I", "note": "(stereo partly shown) [Metrizamide]", "values": [{"measurement": "hydrolytic stability", "setting": "[6]", "value": "hydrolytic instability"}]}]}
